From paper PMC4950319, “Kinetic and structural characterization of amyloid‐β peptide hydrolysis by human angiotensin‐1‐converting enzyme” (The Febs Journal, 2016)
Blank lines part the entries; values can stand above or below the substance they belong to.

Columns and labels:
[1] = biological target: human wild-type somatic ACE (sACE) (human) (UniProt P12821)
[2] = biological target: full-length domain knockout variant of human sACE with only the N-domain active (N-sACE) (human) (UniProt P12821)
[3] = biological target: soluble form of the N-domain of human sACE (Ndom) (human) (UniProt P12821)
[4] = biological target: full-length domain knockout variant of human sACE with only the C-domain active (C-sACE) (human) (UniProt P12821)
sACE (human ACE) = settings: cited from earlier work; for interdomain cooperativity: human ACE enzymes
Description: Due to the C‐domain's poorer hydrolysis of Aβ we can infer that the C‐domain appears ...

ACE = settings: recombinant truncated domains only; cited from earlier work
Description: Based on our results and the synergistic effect that the C‐domain exerts on the N‐domain, the C‐domain activity is likely to be important in vivo. […] This observation is supported by the architecture of the central cavity found in tACE (human testis ACE, C‐domain equivalent) crystal structure and the chloride‐dependent substrate interactions 54, 57. The latter study, ...

Chain of human wild-type somatic ACE (sACE) (human) (P12821 30-1306): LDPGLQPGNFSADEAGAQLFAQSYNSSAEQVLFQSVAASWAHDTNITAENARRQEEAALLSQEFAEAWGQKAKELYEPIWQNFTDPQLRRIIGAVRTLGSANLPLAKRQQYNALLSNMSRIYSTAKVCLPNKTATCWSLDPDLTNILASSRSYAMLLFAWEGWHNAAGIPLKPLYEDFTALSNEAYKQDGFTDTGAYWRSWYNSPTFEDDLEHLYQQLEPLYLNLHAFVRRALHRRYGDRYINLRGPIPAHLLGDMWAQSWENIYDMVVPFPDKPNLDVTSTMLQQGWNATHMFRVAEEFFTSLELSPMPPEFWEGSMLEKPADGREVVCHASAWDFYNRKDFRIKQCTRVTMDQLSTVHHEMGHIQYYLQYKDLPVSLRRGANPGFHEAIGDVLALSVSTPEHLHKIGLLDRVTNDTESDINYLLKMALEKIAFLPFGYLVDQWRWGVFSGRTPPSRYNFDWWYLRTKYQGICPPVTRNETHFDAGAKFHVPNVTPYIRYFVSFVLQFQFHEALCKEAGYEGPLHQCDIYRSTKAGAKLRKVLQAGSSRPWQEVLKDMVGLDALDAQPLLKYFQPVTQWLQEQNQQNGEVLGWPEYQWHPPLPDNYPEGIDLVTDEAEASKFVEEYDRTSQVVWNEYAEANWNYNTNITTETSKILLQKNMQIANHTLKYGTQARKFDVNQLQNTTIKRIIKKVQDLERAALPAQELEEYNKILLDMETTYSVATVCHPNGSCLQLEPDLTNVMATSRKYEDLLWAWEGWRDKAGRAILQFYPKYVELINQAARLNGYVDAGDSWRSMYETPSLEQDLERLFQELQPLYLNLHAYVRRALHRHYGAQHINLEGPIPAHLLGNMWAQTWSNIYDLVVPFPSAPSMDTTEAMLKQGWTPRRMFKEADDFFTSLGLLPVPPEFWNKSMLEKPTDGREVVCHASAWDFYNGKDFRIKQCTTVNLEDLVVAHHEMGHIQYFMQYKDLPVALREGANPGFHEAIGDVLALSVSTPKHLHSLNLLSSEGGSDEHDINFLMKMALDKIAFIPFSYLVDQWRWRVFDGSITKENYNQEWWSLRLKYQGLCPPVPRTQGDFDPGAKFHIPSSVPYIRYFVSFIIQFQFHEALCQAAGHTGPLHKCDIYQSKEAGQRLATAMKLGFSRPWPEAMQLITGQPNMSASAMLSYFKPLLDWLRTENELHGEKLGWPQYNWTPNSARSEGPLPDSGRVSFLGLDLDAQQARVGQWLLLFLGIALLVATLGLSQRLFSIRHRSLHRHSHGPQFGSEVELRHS
Chain of full-length domain knockout variant of human sACE with only the N-domain active (N-sACE) (human) (P12821 other isoform, or with tags, fused parts or gaps, change not shown): as the sequence (P12821 30-1306) above, with H959K, H963K counted along it
Chain of full-length domain knockout variant of human sACE with only the C-domain active (C-sACE) (human) (P12821 other isoform, or with tags, fused parts or gaps, change not shown): as the sequence (P12821 30-1306) above, with H361K, H365K counted along it
Chain of soluble form of the N-domain of human sACE (Ndom) (human) (P12821 30-658): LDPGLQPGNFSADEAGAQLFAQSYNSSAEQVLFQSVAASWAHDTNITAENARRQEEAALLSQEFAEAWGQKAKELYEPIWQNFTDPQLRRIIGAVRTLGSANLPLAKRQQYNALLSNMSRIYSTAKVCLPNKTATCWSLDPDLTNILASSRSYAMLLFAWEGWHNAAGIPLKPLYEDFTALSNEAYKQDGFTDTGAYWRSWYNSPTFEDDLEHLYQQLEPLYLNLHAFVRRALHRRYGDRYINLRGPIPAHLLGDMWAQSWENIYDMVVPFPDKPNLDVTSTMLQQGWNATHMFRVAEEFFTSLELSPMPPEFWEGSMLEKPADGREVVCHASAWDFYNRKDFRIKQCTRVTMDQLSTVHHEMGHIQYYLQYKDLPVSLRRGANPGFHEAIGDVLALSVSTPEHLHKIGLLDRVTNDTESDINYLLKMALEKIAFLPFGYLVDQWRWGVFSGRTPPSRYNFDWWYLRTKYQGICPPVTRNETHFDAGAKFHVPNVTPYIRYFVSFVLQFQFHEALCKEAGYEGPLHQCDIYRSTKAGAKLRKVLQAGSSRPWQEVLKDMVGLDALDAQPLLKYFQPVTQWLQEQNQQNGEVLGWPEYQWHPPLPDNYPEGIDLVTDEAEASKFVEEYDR

Km of hydrolysis of Aβ(1–16) (HPLC assay, 15 min, 37 °C, 50 mM Hepes pH 7.5, 100 mM NaCl, 10 μM ZnSO4) [1]: 35.2 μM | Km of hydrolysis of Aβ(1–16) (HPLC assay, 15 min, 37 °C, 50 mM Hepes pH 7.5, 100 mM NaCl, 10 μM ZnSO4) [2]: 34.2 μM | Km of hydrolysis of Aβ(1–16) (HPLC assay, 15 min, 37 °C, 50 mM Hepes pH 7.5, 100 mM NaCl, 10 μM ZnSO4) [3]: 21.4 μM | Km of hydrolysis of Aβ(1–16) (HPLC assay, 15 min, 37 °C, 50 mM Hepes pH 7.5, 100 mM NaCl, 10 μM ZnSO4) [4]: 42.4 μM
Substance: Aβ(1–16) (H-…-OH) (peptide)

Substance: angiotensin‐(1‐9) (DRVYIHPFH; Angiotensin 1-9; UniProt P01019 25-33, looked up, fragment) [physiological substrate]
degree of cooperativity between domains (sACE (human ACE); compared with many synthetic peptides): considerably less than many synthetic peptides | interdomain cooperativity (sACE (human ACE)): showed a similar result for angiotensin I and angiotensin‐(1‐7) but not angiotensin‐(1‐9)

Substance: angiotensin I (DRVYIHPFHL; Angiotensin-1; UniProt P01019 25-34, looked up) [physiological ACE substrate]
interdomain cooperativity (sACE (human ACE)): showed a similar result for angiotensin I and angiotensin‐(1‐7) but not angiotensin‐(1‐9)

Substance: Aβ(1–40): larger Aβ(1–40) substrate
competition with hippuryl‐L‐histidyl‐ L‐leucine (ACE): did not out‐compete

Substance: (Abz)‐LFK(Dnp)‐OH
effect of the presence of the N‐domain on hydrolysis (sACE (human ACE)): regulatory effects

Substance: angiotensin‐(1‐7) (DRVYIHP; Angiotensin 1-7; UniProt P01019 25-31, looked up, fragment) [physiological substrate]
interdomain cooperativity (sACE (human ACE)): showed a similar result for angiotensin I and angiotensin‐(1‐7) but not angiotensin‐(1‐9)
